Five compounds from patent US20260315446A1, “ANTIFUNGAL COMPOUNDS AND USES THEREOF” (priority 2023, published 2026) can be followed below.

Converted amounts (≈) assume the structure as drawn. “Also recorded” adds a separate entry of the source. Where two headings read alike, the source gives them in different places.

The test system of assay [1] is IL-2 expression in primary murine CD4+ T cells. The experiment in a line: In vitro immunosuppressive activity, IL-2 expression (Example 1). It counts as cell-based, mouse. Conditions: for IC50: Mus musculus, CD4+ T, 72 h, PMA and ionomycin stimulation, read-out: IL-2 50% inhibitory concentration (IC50). On the procedure:
The potent immunosuppressive activity of FK506 and FK520 is what precludes these highly antifungal compounds from being utilized clinically to treat invasive fungal infections. Therefore, it is essential to understand the level of immunosuppressive activity for each of these analogs to determine if these C-22 modifications improve the fungal selectivity. Utilizing a primary murine T-cell model, IL-2 expression was assessed following growth in the presence of calcineurin inhibitors (FIG. 6A). Naive, primary CD4^+ T cells were collected from mice and grown for 72 h in the presence of FK506, FK520, or an analog. Following stimulation with phorbol 12-myristate 13-acetate (PMA) and ionomycin, the proportion of cells producing IL-2, a key calcineurin-dependent cytokine, was measured with flow cytometry. All compounds generated a dose-dependent reduction in IL-2 production.
Spleen and lymph nodes were collected from C57BL/6 mice and homogenized through a 40-μm filter. Pan-CD4^+ T cells were enriched using a MagniSort mouse CD4 T-cell kit (eBioscience) according to the manufacturer's protocol. Thereafter, CD4^+CD25^− CD44^loCD62L^hi naive T cells were sorted by fluorescence-activated cell sorting (FACS). The naive CD4^+ T cells were grown in Iscove's modified Dulbecco's medium (IMDM) supplemented with glutamine, penicillin, streptomycin, gentamicin, 2-mercaptoethanol, and 10% fetal bovine serum (FBS). Cells were then cultured on anti-hamster IgG-coated plates in the presence of hamster anti-CD3 epsilon and anti-CD28 antibodies (BD Biosciences), neutralizing anti-IL-4 antibody (eBioscience), recombinant IL-12 (10 ng/mL), and recombinant IL-2 (50 U/mL) for 72 h. During this period, cells were grown in the presence of 2× serially diluted FK506, FK520, or analog suspended in DMSO for 72 h. During the last 4 h of culture, phorbol 12-myristate 13-acetate (PMA; Sigma), ionomycin (Sigma), and GolgiStop (BD Biosciences) were added to the culture to facilitate detection of intracellular cytokines via flow cytometry. Live cells were stained with fluorescein isothiocyanate (FITC)-conjugated anti-CD4 antibody (eBioscience) and fixable viability dye eFluor 506 (eBioscience) on ice, followed by fixation and permeabilization using the Foxp3 transcription factor staining kit (eBioscience). Intracellular staining was performed at room temperature using phycoerythrin (PE)-conjugated anti-IL-2 antibody (eBioscience), followed by analysis with a BD LSRFortessa X-20 flow cytometer.

In assay [2] the test system is Candida albicans. In words: MIC assay (Example 3). In kind it is cell-based. Conditions: for MIC: Candida albicans, SC5314, read-out: MIC against Candida albicans (SC5314). On the procedure: (§1) In vitro antifungal activity was assessed for all fungal strains in RPMI 1640 (Sigma-Aldrich R1383). MICs were measured using Clinical and Laboratory Standards Institute (CLSI) M38-A2 and M27-A3 standard in vitro antifungal susceptibility protocols. C. neoformans and A. fumigatus testing was performed at 37° C. MECs for A. fumigatus were recorded after 48 h of growth. C. albicans testing was performed at 30° C. with a uniform concentration of 2 μg/mL of fluconazole to sensitize the cells to calcineurin inhibition.
(§2) C. neoformans clinical isolate H99 and congenic-derived strain KN99α were used (see, Nielsen K, et al., 2003. Infect Immun 71:4831-4841). KN99α-derived frr1Δ deletion mutants with nourseothricin resistance markers as part of the Madhani deletion collection (NIH funding R01AI100272) were used. C. deneoformans strains used include JEC21 and derived C21F2 (CNB1-1) and C21F3 (frr1-3) strains (see, Odom A, et al., 1997. EMBO J 16:2576-2589; Moore T D, Edman J C. 1993. Mol Cell Biol 13:1962-1970; Fox D S, et al., 2001. Mol Microbiol 39:835-849). C. albicans strain SC5314 is the wild-type strain from which mutants YAG171 (rbp1/rbp1) and YAG237 (CNB1-1/CNB1) were derived (see, Cruz M C, et al., 2001. Antimicrob Agents Chemother 45:3162-3170). A. fumigatus strain akuB^Ku80 and a derived FKBP12 mutant fkbp12A were used during antifungal screening (see, Falloon K, et al., 2015. PLoS One 10:e0137869).

Assay [3] concerns Cryptococcus neoformans. In words: MIC assay (Example 3). Conditions: for antifungal activity at 37° C. versus 30° C.: C. neoformans; for MIC: Cryptococcus neoformans. In kind it is cell-based. As for the experimental part: as §1, §2
The subject of assay [4] is IL-2 expression in primary murine CD4+ T cells. The experiment in a line: In vitro immunosuppressive activity, IL-2 expression (Example 4). It counts as cell-based, mouse. Conditions: Mus musculus, CD4+ T. As for the experimental part: Spleen and lymph nodes were collected from C57BL/6 mice and homogenized through a 40 μm filter. Pan-CD4^+ T cells were enriched using MagniSort Mouse CD4 T cell Kit (eBioscience) according to the manufacturer's protocol. Thereafter, CD4+CD25−CD44lo CD62Lhi naïve T cells were FACS-sorted. The naïve CD4+ T cells were grown in Iscove's Modified Dulbecco's Medium (IMDM) supplemented with glutamine, penicillin, streptomycin, gentamicin, 2-mercaptoethanol, and 10% FBS. Cells were then cultured on anti-hamster IgG coated plates in the presence of hamster anti-CD3 epsilon and anti-CD28 antibodies (BD Biosciences), neutralizing anti-IL-4 antibody (eBioscience), recombinant IL-12 (10 ng/mL), and recombinant IL-2 (50 U/mL) for 72 h. During this period, cells were grown in the presence of 2× serially diluted FK506, FK520, or analog suspended in DMSO for 72 h. During the last 4 h of culture, phorbol 12-myristate 13-acetate (PMA; Sigma), ionomycin (Sigma), and GolgiStop (BD Biosciences) were added to the culture to facilitate detection of intracellular cytokines via flow cytometry.
Live cells were stained with FITC-conjugated anti-CD4 antibody (eBioscience) and Fixable Viability Dye eFluor 506 (eBioscience) on ice, followed by fixation and permeabilization using the Foxp3 Transcription Factor Staining Kit (eBioscience). Intracellular staining was performed at room temperature using PE-conjugated anti-IL-2 antibody (eBioscience), followed by analysis with a BD LSRFortessa X-20 flow cytometer.

The subject of assay [5] is Aspergillus fumigatus. The experiment in a line: MEC assay (Example 3).
The mark [6] stands for this setting: MIC80, 30° C. with 2 μg/mL fluconazole.
[7] abbreviates: MIC90, 37° C., read-out: MIC against Cryptococcus neoformans (H99).

Turning to `CC[C@@H]1/C=C(\C)C[C@H](C)C[C@H](OC)[C@H]2O[C@@](O)(C(=O)C(=O)N3CCCC[C@H]3C(=O)O[C@H](/C(C)=C/[C@@H]3CC[C@@H](O)[C@H](OC)C3)[C@H](C)[C@@H](O)CC1=O)[C@H](C)C[C@@H]2OC` [FK520, reference compound], the “IL-2 inhibition / immunosuppression” value in assay [1] is reported as “highest level of IL-2 inhibition; also recorded: slightly reduced compared to that of FK506”. In addition, the “MIC against Candida albicans (SC5314)” value in assay [2] (setting [6]) was 0.02 µg/mL (≈ 0.0253 µM). Moreover, the “antifungal activity at 37° C. versus 30° C.” value in assay [3] is “potent antifungal activity against C. neoformans at 37 °C but not at 30 °C”. Moreover, in assay [3] (MIC90, 37° C.), the “MIC against Cryptococcus neoformans (H99)” value was 0.05 µg/mL (≈ 0.0631 µM). Further, the “H99 MIC90” value in assay [3] (Table 8) was found to be 0.05 µg/mL. In assay [4] (Table 12), this compound showed an IC50 of 0.48 nM. The “MEC against Aspergillus fumigatus (akuB^Ku80)” value (“MEC … (akuB^Ku80)” for short) in assay [5] turned out to be 0.16 µg/mL.

Take `C=CCC1C=C(C)CC(C)CC(OC)C2OC(O)(C(=O)C(=O)N3CCCCC3C(=O)OC(C(C)=CC3CCC(O)C(OC)C3)C(C)C(O)CC1=O)C(C)CC2OC` (stereo not drawn) [FK506, reference compound]: the “IL-2 inhibition / immunosuppression” value in assay [1] is “highest level of IL-2 inhibition”. The MIC in assay [2] (setting [6]) turned out to be 0.02 µg/mL (≈ 0.0249 µM); in assay [3] (setting [7]), 0.05 µg/mL (≈ 0.0622 µM); in assay [3] (Table 8, read-out: H99 MIC90), 0.05 µg/mL (≈ 0.0622 µM). In assay [3], the “antifungal activity at 37° C. versus 30° C.” value was “potent antifungal activity against C. neoformans at 37 °C but not at 30 °C”. Moreover, in assay [4] (Table 12), the IC50 was 0.11 nM. The “MEC … (akuB^Ku80)” value in assay [5] (strain akuB^Ku80) came out at 0.04 µg/mL.

Regarding `C=CC[C@@H]1/C=C(\C)C[C@H](C)C[C@H](OC)[C@H]2O[C@@](O)(C(=O)C(=O)N3CCCC[C@H]3C(=O)O[C@H](/C(C)=C/[C@@H]3CC[C@@H](O)[C@H](OC)C3)[C@H](C)[C@@H](O)C/C1=N/NC(=O)CC)[C@H](C)C[C@@H]2OC` [JH-FK-02], in assay [1], the IC50 stood at 42.6 nM. Further, the “fold increase of IL-2 IC50 / reduction of immunosuppression compared to FK506” value in assay [1] (relative to FK506) was > 380 fold.

Consider `CC[C@@H]1/C=C(\C)C[C@H](C)C[C@H](OC)[C@H]2O[C@@](O)(C(=O)C(=O)N3CCCC[C@H]3C(=O)O[C@H](/C(C)=C/[C@@H]3CC[C@@H](O)[C@H](OC)C3)[C@H](C)[C@@H](O)C/C1=N/NC(C)=O)[C@H](C)C[C@@H]2OC` [JH-FK-05], for which the IC50 in assay [1] and in assay [4] (Table 13) was 20 nM each time.

In the case of `CC[C@@H]1/C=C(\C)C[C@H](C)C[C@H](OC)[C@H]2O[C@@](O)(C(=O)C(=O)N3CCCC[C@H]3C(=O)O[C@H](/C(C)=C/C3CC[C@@H](O)[C@H](OC)C3)[C@H](C)[C@@H](O)C/C1=N/NC(=O)OC)[C@H](C)C[C@@H]2OC` (stereo partly drawn) [JH-FK-08], the MIC/MEC is >25 µg/mL in assay [2]; >25 µg/mL in assay [3] (strain frr1Δ (KN99α frr1Δ::NAT), MIC90, 37° C.); 1.25 µg/mL (≈ 1.45 µM) in assay [5] (strain akuB^Ku80); >20 µg/mL in assay [5] (strain Δfkbp12 (akuB^Ku80 fkbp12Δ)). For the same compound, the MIC in assay [2] (setting [6]) turned out to be 0.4 µg/mL (≈ 0.463 µM); in assay [3] (setting [7]), 0.8 µg/mL (≈ 0.926 µM); in assay [3] (Table 8, read-out: H99 MIC90), 0.8 µg/mL (≈ 0.926 µM). Besides, the “antifungal activity at 37° C. versus 30° C.” value in assay [3] is “potent antifungal activity against C. neoformans at 37 °C but not at 30 °C”. Besides, the “MEC … (akuB^Ku80)” value in assay [5] (strain akuB^Ku80) amounted to 1.3 µg/mL.
